Data reported in ChEMBL document CHEMBL2203221, “Atom-based enumeration: new eribulin analogues with low susceptibility to P-glycoprotein-mediated drug efflux” (Bioorg Med Chem Lett, 2012).
pIC50: −log10 of the molar value.

Experiments:
MES-SA = test: Resistance ratio of IC50 for human MES-SA/Dx5-Rx1 cells to IC50 for human MES-SA cells; type: functional
[1] = Cytotoxicity against human MES-SA/Dx5-Rx1 cells; type: functional, cell-based
[2] = Cytotoxicity against human MES-SA cells; type: functional, cell-based

Row | Structure (SMILES) | Ratio IC50 (MES-SA) | pIC50 [1] | pIC50 [2]
1 | C=C1C[C@@H]2CC[C@@]34C[C@H]5O[C@@H]6[C@@H](O3)[C@H]3O[C@H](CC[C@@H]3O[C@H]6[C@H]5O4)CC(=O)C[C@@H]3[C@@H](OC)[C@@H](C[C@H](O)CO)O[C@H]3C[C@H]3O[C@@H](CC[C@@H]1O2)C[C@@H](C)C3=C | 220 | 8.19 | 10.52
2 | C=C1C[C@@H]2CC[C@@]34C[C@H]5O[C@@H]6[C@@H](O3)[C@H]3O[C@H](CC[C@@H]3O[C@H]6[C@H]5O4)CC(=O)C[C@@H]3[C@@H](OC)[C@@H](C[C@H](O)COC)O[C@H]3C[C@H]3O[C@@H](CC[C@@H]1O2)C[C@@H](C)C3=C | 17 | 8.55 | 9.77
3 | C=C1C[C@@H]2CC[C@@]34C[C@H]5O[C@@H]6[C@@H](O3)[C@H]3O[C@H](CC[C@@H]3O[C@H]6[C@H]5O4)CC(=O)C[C@@H]3[C@@H](OC)[C@@H](CCO)O[C@H]3C[C@H]3O[C@@H](CC[C@@H]1O2)C[C@@H](C)C3=C | 33 | 7.00 | 8.52
4 | C=C1C[C@@H]2CC[C@@]34C[C@H]5O[C@@H]6[C@@H](O3)[C@H]3O[C@H](CC[C@@H]3O[C@H]6[C@H]5O4)CC(=O)C[C@@H]3[C@@H](OC)[C@@H](CC(C)O)O[C@H]3C[C@H]3O[C@@H](CC[C@@H]1O2)C[C@@H](C)C3=C (stereo not given in full) | 17 | 8.32 | 9.54
5 | C=C1C[C@@H]2CC[C@@]34C[C@H]5O[C@@H]6[C@@H](O3)[C@H]3O[C@H](CC[C@@H]3O[C@H]6[C@H]5O4)CC(=O)C[C@@H]3[C@@H](OC)[C@@H](CC(O)CCCC)O[C@H]3C[C@H]3O[C@@H](CC[C@@H]1O2)C[C@@H](C)C3=C (stereo not given in full) | 4.2 | 9.04 | 9.66
6 | C=C1C[C@@H]2CC[C@@]34C[C@H]5O[C@@H]6[C@@H](O3)[C@H]3O[C@H](CC[C@@H]3O[C@H]6[C@H]5O4)CC(=O)C[C@@H]3[C@@H](OC)[C@@H](CC(O)CCCCCC)O[C@H]3C[C@H]3O[C@@H](CC[C@@H]1O2)C[C@@H](C)C3=C (stereo not given in full) | 4.6 | 8.68 | 9.34
7 | C=C1C[C@@H]2CC[C@@]34C[C@H]5O[C@@H]6[C@@H](O3)[C@H]3O[C@H](CC[C@@H]3O[C@H]6[C@H]5O4)CC(=O)C[C@@H]3[C@@H](OC)[C@@H](CC(O)CCCCCCCC)O[C@H]3C[C@H]3O[C@@H](CC[C@@H]1O2)C[C@@H](C)C3=C (stereo not given in full) | 7.2 | 8.25 | 9.11
8 | C=C1C[C@@H]2CC[C@@]34C[C@H]5O[C@H]6[C@@H](O3)[C@H]3O[C@H](CC[C@@H]3O[C@H]6[C@H]5O4)CC(=O)C[C@@H]3[C@@H](OC)[C@@H](C[C@H](O)CN)O[C@H]3C[C@H]3O[C@@H](CC[C@@H]1O2)C[C@@H](C)C3=C.CS(=O)(=O)O [ERIBULIN MESYLATE] | 1800 | 5.51 | 8.77
9 | CC(=O)O[C@H]1C(=O)[C@@]2(C)[C@H]([C@H](OC(=O)c3ccccc3)[C@]3(O)C[C@H](OC(=O)[C@H](O)[C@@H](NC(=O)c4ccccc4)c4ccccc4)C(C)=C1C3(C)C)[C@]1(OC(C)=O)CO[C@@H]1C[C@@H]2O [PACLITAXEL] |  | < 6.00 | 
